Patent US20100256196A1, “Biomarkers for Atherosclerosis” (IKFE, priority 2008, published 2010)

Key:
[1] = system: patients with type 2 diabetes and established atherosclerosis; experiment: Clinical and biochemical observation parameters, double-blind placebo-controlled study, 4 weeks add-on treatment; type: in vivo, human; details: mean ± SD; for Glucose: fasting; for HOMAIR: insulin resistance score; for IL-6 / MIF / MMP-9: plasma protein; for Adiponectin / Angiotensin II / Complement factor C3 / Insulin / Intact proinsulin / P-seclectin / sCD40L: plasma
[2] = system: NFκB and NFκB-modulated cytokines in circulating peripheral mononuclear cells; experiment: mRNA expression in circulating mononuclear cells (CD14+ monocytes/macrophages), calibrator-normalized relative quantification by LightCycler PCR; type: in vivo, human; details: normalized ratio, reference gene β-actin, mean ± SD
From the text: Blood for the measurement of fasting glucose, MMP-9, and hsCRP was taken at baseline and after 3, 7, 10, 14 and 28 days of study treatment. Blood for assessment of the mRNA expression profile of circulating mononuclear cells as well as for assessment of circulating plasma levels of HbAlc, Insulin, Intact Proinsulin, Adiponectin, IL-6, sCD40L, P-Selectin, MIF, Angiotensin II, complement factor 3, and blood lipids were obtained at baseline and at the end of the study. Insulin resistance was calculated using the HOMAIR score at baseline and study endpoint as published previously (29, 30).
Isolation of MNC from whole blood was performed as a density gradient centrifugation by means of the ACCUSPIN System-HISTOPAQUE-1077 (Sigma-Aldrich Chemie GmbH, Steinheim, Germany). The isolation of macrophages and monocytes from the collected cells was performed by MACS magnetic cell sorting with CD14 MicroBeads (human) (Miltenyi Biotec GmbH, Bergisch Gladbach, Germany). The CD14 positive (CD14+) cells (macrophages and monocytes) were first magnetically labeled with MACS CD14 MicroBeads. The cell suspension was loaded on a MS MACS Column which was placed in the magnetic field of a MiniMACS Separator. The magnetically labeled CD14+ cells were retained in the column and separated from the unlabelled cell fraction.
The mRNA isolation from macrophages and monocytes was performed with the High Pure RNA Isolation Kit (Roche Applied Science, Penzberg, Germany). The cells were first lysed and the intact and undegraded RNA was adsorbed to a glass fibre fleece. Simultaneously, RNAses were inactivated. Furthermore, residues of contaminating DNA were digested and the RNA was purified from salts, proteins and other impurities. Purity of the isolated mRNA was assessed by real-time PCR (LightCycler II, Roche Diagnostics, Mannheim, Germany). The transcription of mRNA in cDNA was performed on a thermocycler (Biozym Diagnostik GmbH, Oldendorf, Germany) according to a standardized protocol (‘Transcriptor First Strand cDNA Synthesis Kit’, Instruction Manual Version 1, 2004, Roche Applied Science, Penzberg, Germany).
Sequence specific primers were designed by TIB MOLBIOL (Syntheselabor GmbH, Berlin, Germany) to amplify the gene sequences of Rel-A, p105, IκB-α, IκB-β and IL-6. The primers for TNF-α were taken from “Rapid Cycle Real-Time PCR Methods and Applications Quantification” (31). The primers for MIF and MMP-9 were reproduced from previous reports (12, 32). A list of the primers used for the quantification experiments, the primer-specific PCR protocols and the specific amplification product melting points are provided in Table 1. An additional agarose gel electrophoresis assay was performed to verify the correct length of the amplification products.
The RNA quantification in this study, was performed by means of a calibrator-normalized relative quantification method based on the LightCycler II system (Roche Diagnostics, Mannheim, Germany), where quantification of a target and a reference gene is a function of PCR efficiency and the sample crossing point. The sample crossing point is the amplification cycle during an amplification assay, at which the fluorescence of a probe rises above background fluorescence. This occurs usually at the second derivative maximum (fastest change in fluorescence). […] In these experiments, β-actin is the most abundant protein in eukaryotic cells with constant expression (33). […] The principle of this method is the determination of the relative amount of the target gene and the reference gene for each sample and for the calibrator. […] All experiments were performed in triple replications.
Data are presented as arithmetic mean±standard deviation (SD) for continuous variables or mean±SEM for percent changes from baseline and as the number/proportion of patients for categorical variables.

[3] = in vivo; cited from earlier work
[4] = system: MIF; details: six week treatment, eight non-diabetic patients with obesity; cited from earlier work
[5] = endpoint, after 4 weeks 45 mg pioglitazone add-on
[6] = endpoint, after 4 weeks of pioglitazone

## CCc1ccc(CCOc2ccc(CC3SC(=O)NC3=O)cc2)nc1 (stereo not drawn) [pioglitazone]
[1]; [5]
  BMI: 31.4 ± 4.5 kg/m^2
  Diastolic blood pressure: 80 ± 11 mmHg
  HDL cholesterol: 1.26 ± 0.26 mmol/L
  HbA1c: 6.8 ± 0.9%
  LDL cholesterol: 2.52 ± 0.76 mmol/L
  Systolic blood pressure: 137 ± 18 mmHg
  Total Cholesterol: 4.78 ± 1.09 mmol/L
  hsCRP: 1.9 ± 1.7 mg/L
  sICAM: 319 ± 86 µg/L
  sVCAM: 943 ± 452 µg/L
  Glucose: 122 ± 35 mg/dL
  HOMAIR: 3.9 ± 2.6
  IL-6: 3.2 ± 0.1 ng/L
  MIF: 9.6 ± 3.5 µg/L
  MMP-9: 284 ± 101 µg/L
  Adiponectin: 22.1 ± 9.1 µg/mL
  Angiotensin II: 8.0 ± 8.8 µg/L
  Complement factor C3: 1.5 ± 0.3 g/L
  Insulin: 12 ± 7 μU/ml
  Intact proinsulin: 19 ± 17 pmol/L
  P-seclectin: 93 ± 22 µg/L
  sCD40L: 1.1 ± 1.1 µg/L
[1]; pioglitazone arm, baseline
  Glucose: 142 ± 40 mg/dL
  HOMAIR: 5.9 ± 4.4
  BMI: 31.0 ± 4.3 kg/m^2
  Diastolic blood pressure: 83 ± 11 mmHg
  HDL cholesterol: 1.18 ± 0.24 mmol/L
  HbA1c: 7.0 ± 1.1%
  LDL cholesterol: 2.46 ± 0.80 mmol/L
  Systolic blood pressure: 144 ± 15 mmHg
  Total Cholesterol: 4.63 ± 0.99 mmol/L
  hsCRP: 2.9 ± 1.7 mg/L
  sICAM: 326 ± 90 µg/L
  sVCAM: 915 ± 409 µg/L
  IL-6: 3.3 ± 0.5 ng/L
  MIF: 10.4 ± 5.3 µg/L
  MMP-9: 344 ± 118 µg/L
  Adiponectin: 8.7 ± 3.5 µg/mL
  Angiotensin II: 10.2 ± 9.2 µg/L
  Complement factor C3: 1.6 ± 0.4 g/L
  Insulin: 17 ± 10 μU/ml
  Intact proinsulin: 30 ± 37 pmol/L
  P-seclectin: 95 ± 20 µg/L
  sCD40L: 1.6 ± 1.8 µg/L
[2]; [6]
  IL-6 mRNA expression: 1.05 ± 0.46
  IκB-β mRNA expression: 3.30 ± 2.41
  MIF mRNA expression: 0.84 ± 0.31
  MMP-9 mRNA expression: 1.48 ± 1.18
  RelA (p65 subunit of NF-κB) mRNA expression: 0.95 ± 0.44
  TNFα mRNA expression: 1.70 ± 0.93
  p105 (p50 subunit of NF-κB) mRNA expression: 1.33 ± 0.46
[2]; pioglitazone arm, baseline
  IL-6 mRNA expression: 1.13 ± 0.52
  IκB-β mRNA expression: 3.17 ± 2.05
  MIF mRNA expression: 0.98 ± 0.40
  MMP-9 mRNA expression: 2.29 ± 2.68
  RelA (p65 subunit of NF-κB) mRNA expression: 1.20 ± 0.74
  TNFα mRNA expression: 1.88 ± 1.20
  p105 (p50 subunit of NF-κB) mRNA expression: 1.63 ± 0.80

## Cc1c(C)c2c(c(C)c1O)CCC(C)(COc1ccc(CC3SC(=O)NC3=O)cc1)O2 (stereo not drawn) [troglitazone]
[3]
  Reason for being taken from the market: hepatotoxiciy

## CN(C)C(=N)N=C(N)N [metformin]
[4]
  Plasma concentration of MIF and transcription of MIF mRNA in mononuclear cells: reduced
